Assay results published in patent publication US11814445B2, “Cyclic polypeptides for PCSK9 inhibition” (Ra Pharmaceuticals, Inc., priority 2018, dated 2023).
Numbered stars: 1 amine (or outer) side, 2 acyl side, 3 side chain; on linkers, the order of the positions; unused ones are H or OH. Bridge positions count the residues as written; N and C are the ends. Square brackets hold non-standard residues; d marks the D form. Peptide text beside a SMILES is read from it. ξ: configuration not given here. X2 = NC(=O)[C@H](CSCc1cccc(C[*:1])c1)CC(=O)[C@@H]1CCCN1[*:2]; Phe(3,4,5-F3) = N[C@@H](Cc1cc(F)c(F)c(F)c1)C(=O)O; Phe(4-CF3) = N[C@@H](Cc1ccc(C(F)(F)F)cc1)C(=O)O; Trp(5-F) = N[C@@H](Cc1c[nH]c2ccc(F)cc12)C(=O)O; Asp(3,3-Me2) = CC(C)(C(=O)O)[C@H](N)C(=O)O; Bip = N[C@@H](Cc1ccc(-c2ccccc2)cc1)C(=O)O; Phe(3-CN) = N#Cc1cccc(C[C@H](N)C(=O)O)c1; X1 = O=C(CCSCc1cccc(CSCCN[*:1])c1)[*:2]; Phe(4-F) = N[C@@H](Cc1ccc(F)cc1)C(=O)O; Pro(4,4-F2) = O=C(O)[C@@H]1CC(F)(F)CN1; 1Nal = N[C@@H](Cc1cccc2ccccc12)C(=O)O; 2Nal = N[C@@H](Cc1ccc2ccccc2c1)C(=O)O; mXylylene = c1cc(C[*:1])cc(C[*:2])c1; NMeY = CN[C@@H](Cc1ccc(O)cc1)C(=O)O; X3 = O=C(CCSC/C=C/CSCCN[*:1])[*:2]; hhPhe = N[C@@H](CCCc1ccccc1)C(=O)O; NMeF = CN[C@@H](Cc1ccccc1)C(=O)O; aThr = C[C@H](O)[C@H](N)C(=O)O; αMeP = C[C@@]1(C(=O)O)CCCN1; Aze = O=C(O)[C@@H]1CCN1; ξP = O=C(O)C1CCCN1; Mpa = O=C(O)CCS

What was measured:
PCSK9 = target: T1, PCSK9 (Homo sapiens, UniProt Q8NBP7); assay: PCSK9 Alexa FRET Standard assay (displacement of AlexaFluor647 tagged cyclic peptide Reagent A); assay type: binding; conditions: 0.5 nM PCSK9, 20 nM AF cyclic peptide Reagent A
T1 construct: biotin (biotinylated)
T1 sequence (Q8NBP7 153-692): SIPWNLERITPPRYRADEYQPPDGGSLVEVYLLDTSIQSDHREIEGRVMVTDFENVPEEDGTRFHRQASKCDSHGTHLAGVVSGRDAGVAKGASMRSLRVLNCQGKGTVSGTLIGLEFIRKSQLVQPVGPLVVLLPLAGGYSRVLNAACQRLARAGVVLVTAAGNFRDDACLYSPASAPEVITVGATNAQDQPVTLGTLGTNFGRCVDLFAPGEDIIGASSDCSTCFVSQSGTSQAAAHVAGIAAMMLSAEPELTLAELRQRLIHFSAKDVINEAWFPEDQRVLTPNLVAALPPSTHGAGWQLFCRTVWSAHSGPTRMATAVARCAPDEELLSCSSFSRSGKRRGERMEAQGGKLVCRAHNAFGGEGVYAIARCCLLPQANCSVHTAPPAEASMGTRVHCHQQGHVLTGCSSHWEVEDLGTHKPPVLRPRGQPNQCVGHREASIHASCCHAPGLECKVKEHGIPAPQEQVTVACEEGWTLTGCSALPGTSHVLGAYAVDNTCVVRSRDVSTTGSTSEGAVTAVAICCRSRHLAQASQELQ
Method: A solution containing 1 nM biotinylated PCSK9+2.5 nM Lance Streptavidin Europium (Strep-Eu) was made in 50 mM HEPES pH 7.4, 0.15 M NaCl, 5 mM CaCl2), 0.01% BSA, and 0.01% Surfactant P20. A separate solution containing 40 nM of the AlexaFluor tagged cyclic peptide was made in the same buffer system. An Echo was used to transfer 0.750 ul of compound to an assay plate followed by the addition of 15 ul of PCSK9+Stept-Eu and 15 ul of AF peptide. The final assay volume was 30.750 ul containing 0.5 nM PCSK9, 1.25 nM Strep-Eu, and 20 nM AF cyclic peptide. The reaction was incubated at room temperature for at least two hours prior to fluorescence measurements using an Envision Multilabel Reader. IC50 values were determined by fitting data to a sigmoidal dose-response curve using nonlinear regression. Ki was then calculated from the IC50 and the KD of AF cyclic peptide. Counts (B-counts) of the europium-labeled PCSK9 were followed to observe if compounds were […]. A fall off of the B-counts likely indicated a false positive of inhibition. Data from this procedure was reported as “A=‘numerical value’ (nanomolar)”

[1] = target: human PCSK9 / human LDLR EGFa domain (Homo sapiens, UniProt Q8NBP7); assay: TR-FRET assay of inhibition of the PCSK9-LDLR protein-protein interaction; assay type: binding; conditions: 20 nM human PCSK9, 20 nM human LDLR EGFa domain, 2 hours room temperature
Sequence of human PCSK9 / human LDLR EGFa domain (Q8NBP7 153-692): as above
Method: A time-resolved fluorescence resonance energy (TR-FRET) assay was used to measure inhibition of the PCSK9-LDLR protein-protein interaction. Briefly, 20 nM avitag-biotinylated human PCSK9 was incubated with 20 nM his-tagged human LDLR EGFa domain in the presence of 5 nM LANCE Ulight Streptavidin (Perkin Elmer) and 5 nM europium-Anti-6×His (Perkin Elmer) for 2 hours covered at room temperature in buffer containing 50 mM HEPES, 150 mM NaCl, 5 mM CaCl2), 0.01% BSA and 0.01% Surfactant P20. Compounds were tested in dose-response and concentrations giving half-maximal inhibition calculated using a 4-parameter fit equation.

Structure (SMILES)	IC50 (PCSK9) [nM]	IC50 [1] [nM]
C[C@@H]1NC(=O)[C@@H]2CCCN2C(=O)[C@H](Cc2ccc(F)cc2)NC(=O)[C@H](Cc2c[nH]c3ccc(F)cc23)NC(=O)CNC(=O)[C@H](CCCCN)NC(=O)CCSCc2cccc(c2)CSC[C@@H](C(N)=O)NC(=O)[C@@H]2CCCN2C(=O)[C@H](Cc2ccc(O)cc2)NC1=O [Compound 006] ([Mpa]KG[Trp(5-F)][Phe(4-F)]PAYPC-NH2; linker 1-10 via mXylylene)	100 to 1000	100 to 1000
C[C@@H]1NC(=O)[C@@H]2CCCN2C(=O)[C@H](Cc2ccc3ccccc3c2)NC(=O)[C@H](Cc2c[nH]c3ccc(F)cc23)NC(=O)CNC(=O)[C@H](CCCCN)NC(=O)CCSCc2cccc(c2)CSC[C@@H](C(N)=O)NC(=O)[C@@H]2CCCN2C(=O)[C@H](Cc2ccc(O)cc2)NC1=O [Compound 011] ([Mpa]KG[Trp(5-F)][2Nal]PAYPC-NH2; linker 1-10 via mXylylene)	1 to 100	1 to 100
C[C@@H]1NC(=O)[C@@H]2CCCN2C(=O)[C@H](Cc2cccc3ccccc23)NC(=O)[C@H](Cc2c[nH]c3ccc(F)cc23)NC(=O)CNC(=O)[C@H](CCCCN)NC(=O)CCSCc2cccc(c2)CSC[C@@H](C(N)=O)NC(=O)[C@@H]2CCCN2C(=O)[C@H](Cc2ccc(O)cc2)NC1=O [Compound 012] ([Mpa]KG[Trp(5-F)][1Nal]PAYPC-NH2; linker 1-10 via mXylylene)	1 to 100	1 to 100
C[C@@H]1NC(=O)[C@@H]2CCCN2C(=O)[C@H](CCCc2ccccc2)NC(=O)[C@H](Cc2c[nH]c3ccc(F)cc23)NC(=O)CNC(=O)[C@H](CCCCN)NC(=O)CCSCc2cccc(c2)CSC[C@@H](C(N)=O)NC(=O)[C@@H]2CCCN2C(=O)[C@H](Cc2ccc(O)cc2)NC1=O [Compound 013] ([Mpa]KG[Trp(5-F)][hhPhe]PAYPC-NH2; linker 1-10 via mXylylene)	1 to 100	1 to 100
C[C@@H]1NC(=O)[C@@H]2CCCN2C(=O)[C@H](Cc2cc(F)c(F)c(F)c2)NC(=O)[C@H](Cc2c[nH]c3ccc(F)cc23)NC(=O)CNC(=O)[C@H](CCCCN)NC(=O)CCSCc2cccc(c2)CSC[C@@H](C(N)=O)NC(=O)[C@@H]2CCCN2C(=O)[C@H](Cc2ccc(O)cc2)NC1=O [Compound 014] ([Mpa]KG[Trp(5-F)][Phe(3,4,5-F3)]PAYPC-NH2; linker 1-10 via mXylylene)	1 to 100	1 to 100
C[C@@H]1NC(=O)[C@@H]2CCCN2C(=O)[C@H](Cc2cccc(C#N)c2)NC(=O)[C@H](Cc2c[nH]c3ccc(F)cc23)NC(=O)CNC(=O)[C@H](CCCCN)NC(=O)CCSCc2cccc(c2)CSC[C@@H](C(N)=O)NC(=O)[C@@H]2CCCN2C(=O)[C@H](Cc2ccc(O)cc2)NC1=O [Compound 015] ([Mpa]KG[Trp(5-F)][Phe(3-CN)]PAYPC-NH2; linker 1-10 via mXylylene)	1 to 100	1 to 100
C[C@@H]1NC(=O)[C@@H]2CCCN2C(=O)[C@H](Cc2ccc(-c3ccccc3)cc2)NC(=O)[C@H](Cc2c[nH]c3ccc(F)cc23)NC(=O)CNC(=O)[C@H](CCCCN)NC(=O)CCSCc2cccc(c2)CSC[C@@H](C(N)=O)NC(=O)[C@@H]2CCCN2C(=O)[C@H](Cc2ccc(O)cc2)NC1=O [Compound 017] ([Mpa]KG[Trp(5-F)][Bip]PAYPC-NH2; linker 1-10 via mXylylene)	1000 to 12100	100 to 1000
C[C@@H]1NC(=O)[C@@H]2CCN2C(=O)[C@H](Cc2c[nH]c3ccc(F)cc23)NC(=O)[C@H](Cc2c[nH]c3ccc(F)cc23)NC(=O)[C@@H](C)NC(=O)[C@H](CCCCN)NC(=O)CCSCc2cccc(c2)CSC[C@@H](C(N)=O)CC(=O)[C@@H]2CCCN2C(=O)[C@H](Cc2ccc(O)cc2)NC1=O [Compound 034] ([Mpa]K[dA][Trp(5-F)][Trp(5-F)][Aze]AY; linker 1-C via X2)	1 to 100	100 to 1000
C[C@@H]1NC(=O)[C@@H]2CC(F)(F)CN2C(=O)[C@H](Cc2c[nH]c3ccc(F)cc23)NC(=O)[C@H](Cc2c[nH]c3ccc(F)cc23)NC(=O)[C@@H](C)NC(=O)[C@H](CCCCN)NC(=O)CCSCc2cccc(c2)CSC[C@@H](C(N)=O)NC(=O)[C@@H]2CCCN2C(=O)[C@H](Cc2ccc(O)cc2)NC1=O [Compound 036] ([Mpa]K[dA][Trp(5-F)][Trp(5-F)][Pro(4,4-F2)]AYPC-NH2; linker 1-10 via mXylylene)	100 to 1000	100 to 1000
NCCCC[C@@H]1NC(=O)CCSCc2cccc(c2)CSCCNC(=O)C2CCCN2C(=O)[C@H](Cc2ccc(O)cc2)NC(=O)CNC(=O)[C@H]2CCCN2C(=O)[C@H](Cc2c[nH]c3ccc(F)cc23)NC(=O)[C@H](Cc2c[nH]c3ccc(F)cc23)NC(=O)CNC1=O (stereo partly shown) [Compound 041] (cyclo(G[Trp(5-F)][Trp(5-F)][dP]GY[ξP][X1]K))	1 to 100	1 to 100
C[C@@H]1NC(=O)[C@@H]2CCCN2C(=O)[C@H](Cc2c[nH]c3ccc(F)cc23)NC(=O)[C@H](Cc2c[nH]c3ccc(F)cc23)NC(=O)[C@@H](C)NC(=O)[C@H](CCCCN)NC(=O)CCSC/C=C/CSCCNC(=O)[C@]2(C)CCCN2C(=O)[C@H](Cc2ccc(O)cc2)NC1=O [Compound 045] (cyclo(AY[αMeP][X3]K[dA][Trp(5-F)][Trp(5-F)]P))	1 to 100	1 to 100
C[C@@H]1NC(=O)[C@@H]2CCCN2C(=O)[C@H](Cc2c[nH]c3ccc(F)cc23)NC(=O)[C@H](Cc2c[nH]c3ccc(F)cc23)NC(=O)[C@@H](C)NC(=O)[C@@H]2CCCN2C(=O)CCSCc2cccc(c2)CSCCNC(=O)[C@@H]2CCCN2C(=O)[C@H](Cc2ccc(O)cc2)NC1=O [Compound 050] (cyclo(AYP[X1]P[dA][Trp(5-F)][Trp(5-F)]P))	1000 to 12100	1 to 100
COc1ccc(C[C@H]2C(=O)N3CCC[C@H]3C(=O)NCCSCc3cccc(c3)CSCCC(=O)N3CCC[C@H]3C(=O)N[C@H](C)C(=O)N[C@@H](Cc3c[nH]c4ccc(F)cc34)C(=O)N[C@@H](Cc3c[nH]c4ccc(F)cc34)C(=O)N3CCC[C@H]3C(=O)N[C@@H](C)C(=O)N2C)cc1 [Compound 053] (cyclo(A[NMeY](Me)P[X1]P[dA][Trp(5-F)][Trp(5-F)]P))	1000 to 12100	100 to 1000
C[C@@H]1NC(=O)CCSCc2cccc(c2)CSCCNC(=O)[C@@H]2CCCN2C(=O)[C@H](Cc2ccccc2)N(C)C(=O)[C@H](C)NC(=O)[C@@H]2CCCN2C(=O)[C@H](Cc2c[nH]c3ccc(F)cc23)NC(=O)[C@H](Cc2c[nH]c3ccc(F)cc23)NC(=O)[C@@H](C)NC1=O [Compound 063] (cyclo(A[NMeF]P[X1]A[dA][Trp(5-F)][Trp(5-F)]P))	1 to 100	1 to 100
C[C@@H]1NC(=O)CCSCc2cccc(c2)CSC[C@@H](C(N)=O)NC(=O)[C@@H]2CCCN2C(=O)[C@H](Cc2ccc(C(F)(F)F)cc2)NC(=O)[C@H](C)NC(=O)[C@@H]2CCCN2C(=O)[C@H](Cc2c[nH]c3ccc(F)cc23)NC(=O)[C@H](Cc2c[nH]c3ccc(F)cc23)NC(=O)[C@@H](C)NC1=O [Compound 084] ([Mpa]A[dA][Trp(5-F)][Trp(5-F)]PA[Phe(4-CF3)]PC-NH2; linker 1-10 via mXylylene)	1 to 100	100 to 1000
COc1ccc(C[C@@H]2NC(=O)[C@H](C)NC(=O)[C@@H]3CCCN3C(=O)[C@H](NC(=O)[C@H](Cc3c[nH]c4ccc(F)cc34)NC(C)=O)Cc3cn(c4ccc(F)cc34)Cc3cn(nn3)-c3cccc(c3)CSCCNC(=O)[C@]3(C)CCCN3C2=O)cc1 [Compound 101]	1 to 100	1 to 100
COc1ccc(C[C@@H]2NC(=O)[C@H](C)NC(=O)[C@@H]3CCCN3C(=O)[C@H](NC(=O)[C@H](Cc3c[nH]c4ccc(F)cc34)NC(=O)[C@@H](C)NC(C)=O)Cc3cn(c4ccc(F)cc34)Cc3cn(nn3)-c3cccc(c3)CSCCNC(=O)[C@]3(C)CCCN3C2=O)cc1 [Compound 102]	1 to 100	1 to 100
C[C@H](O)[C@@H]1NC(=O)CNC(=O)[C@H](CCCCN)NC(=O)CCSCc2cccc(c2)CSC[C@@H](C(N)=O)NC(=O)[C@]2(C)CCCN2C(=O)[C@H](Cc2ccc(O)cc2)NC(=O)[C@H](Cc2cnc[nH]2)NC(=O)[C@H](CC(=O)O)NC(=O)[C@H](Cc2c[nH]c3ccc(F)cc23)NC1=O [Compound 114] ([Mpa]KG[aThr][Trp(5-F)]DHY[αMeP]C-NH2; linker 1-10 via mXylylene)	100 to 1000	100 to 1000
CC(C)(C(=O)O)[C@@H]1NC(=O)[C@H](Cc2c[nH]c3ccc(F)cc23)NC(=O)[C@H](Cc2c[nH]c3ccc(F)cc23)NC(=O)CNC(=O)[C@H](CCCCN)NC(=O)CCSCc2cccc(c2)CSC[C@@H](C(N)=O)NC(=O)[C@]2(C)CCCN2C(=O)[C@H](Cc2ccc(O)cc2)NC(=O)[C@H](Cc2cnc[nH]2)NC1=O [Compound 115] ([Mpa]KG[Trp(5-F)][Trp(5-F)][Asp(3,3-Me2)]HY[αMeP]C-NH2; linker 1-10 via mXylylene)		100 to 1000
